Each structure is given as a SMILES string. pIC50: −log10 of the molar value.

The target in the experiment is T1, WT-TTR (Homo sapiens, UniProt P02766).
T1 construct: made in house
As to the kind of experiment: Stagnant acid-mediated TTR aggregation (fibril formation) assay, turbidity at 340 nm. In kind it is biochemical. As to conditions: for remaining activity at 100 µM / remaining activity at 50 µM: 72 h; for remaining activity at 100 µM / inhibition at 100 µM: pH 4.4, compound 100 μM, WT-TTR 7.2 μM, pH 4.4, 37° C.; for remaining activity at 100 µM: read-out: % FF; for inhibition at 100 µM: read-out: % Inhibition; for remaining activity at 50 µM: read-out: % FF at 50 μM; for pIC50: Table 3, WT-TTR 7.2 μM, read-out: IC50. On the procedure:
Stagnant Acid-Mediated TTR Aggregation Assay.
After 1 h, the samples were diluted with 0.5 ml of 200 mM sodium acetate buffer containing 100 mM KCl and 1 mM EDTA. Samples after mild vortexing were incubated at 37° C. for the desired amount of time without stirring to evaluate the efficacy of the inhibitors. The extent of aggregation was probed by turbidity measurements at 340 nm using Tecan GENios microplate reader. […] The extent of TTR fibril formation in the absence of inhibitor was defined to be 100%. […] All experiments were done in triplicate. […] The IC50 was determined by plotting mean of % inhibition vs log and fitted to sigmoid equation:
The experiments were conducted at 25° C. After 1 h, the samples were diluted with 0.5 mL of 200 mM sodium acetate buffer pH 4.4 containing 100 mM KCl and 1 mM EDTA, vortexed, and incubated at 37° C. for 72 h. […] The stoichiometry of the binding of the inhibitors was determined by HPLC as described by Green et al., N. S. Palaninathan, S, L, Sacchettini, J. e. […] Dissociation constant of binding of these compounds to TTR was determined by fluorescence titration, and data were fitted into the Adair equation for two bind mg.

As a reminder, the inhibition is the relative decrease from the control value, in per cent. `O=c1c2sccc2n(Cc2ccc(F)cc2Cl)c(=O)n1-c1cc(F)ccc1F` [Compound C241-0192]: the remaining activity at 100 µM was determined as 117% and the inhibition at 100 µM turned out to be 0%.

On to `O=C(O)C1CSC(c2ccc(Cl)c(Cl)c2)N1` (centres unmarked) [Compound K085-0014], for which the remaining activity at 100 µM was 102% and the inhibition at 100 µM is 0%.

For `Nc1cc(O)nc(SCC(=O)N2CCOCC2)n1` [Compound 3996-0165], the remaining activity at 100 µM came out at 112% and the inhibition at 100 µM was determined as 0%.

As to `O=C(NC(c1ccco1)c1cc(Cl)c2cccnc2c1O)c1cccnc1` (centres unmarked) [Compound K839-0124], the remaining activity at 100 µM came out at 36.7% and the inhibition at 100 µM is 63.3%.

Consider `Cc1ccc(C2NC(C(=O)O)CS2)cc1` (centres unmarked) [Compound K085-0026], for which the remaining activity at 100 µM came out at 14.3% and the inhibition at 100 µM turned out to be 85.7%.

For `Cc1ccsc1/C=c1\sc2nc(-c3cccs3)nn2c1=O` [Compound 5629-0544], the remaining activity at 100 µM amounted to 77.8% and the inhibition at 100 µM worked out at 22.3%.

On to `Cc1cc(C(=O)Nc2cccnc2Cl)no1` [Compound C226-2576], for which the remaining activity at 100 µM is 130% and the inhibition at 100 µM worked out at 0%.

As for `O=C1/C(=C/c2ccc(Cl)cc2Cl)SC(=S)N1c1ccc(O)cc1` [Compound 2189-0835], the remaining activity at 100 µM was 291% and the inhibition at 100 µM worked out at 0%.

In the case of `COc1ccccc1NC(=S)N(CCCN1CCCCCC1)Cc1cccs1` [Compound C087-0823], the remaining activity at 100 µM is 104% and the inhibition at 100 µM stood at 0%.

For the compound `Cc1ccc2nc(-c3ccc(Cl)s3)c(Nc3ccc(Cl)cc3)n2c1` [Compound C239-0730], the remaining activity at 100 µM was 113% and the inhibition at 100 µM was 0%.

As to `O=C(O)C1CSC(c2ccc(O)cc2)N1` (centres unmarked) [Compound K085-0008], the remaining activity at 100 µM came to 120% and the inhibition at 100 µM was determined as 0%.

Turning to `COc1ccc(C2NC(C(=O)O)CS2)cc1OC` (centres unmarked) [Compound K085-0007], the remaining activity at 100 µM was 129% and the inhibition at 100 µM was 0%.

As for `Cc1nc2ccc(Cl)cc2c(O)c1CN1CCCC1` [Compound 4358-1240], the remaining activity at 100 µM was 81.8% and the inhibition at 100 µM is 18.2%.

In the case of `O=C1NC(=S)S/C1=C\c1ccc(-c2cc(Cl)ccc2Cl)o1` [Compound 3062-0073], the remaining activity at 100 µM was 286% and the inhibition at 100 µM was determined as 0%.

Consider `Nc1nc(F)cc(Oc2ccccc2F)n1` [Compound 1544-0078], for which the remaining activity at 100 µM worked out at 54.4% and the inhibition at 100 µM is 45.6%.

With `O=C(CSc1nccn1-c1cccc(Cl)c1)Nc1cccc2ccccc12` [Compound C262-0464], the remaining activity at 100 µM came out at 122% and the inhibition at 100 µM came to 0%.

For the compound `CCOC(=O)c1c(N)sc(C(=O)NC2CCCCC2)c1C` [Compound R052-1597], the remaining activity at 100 µM was 58.1% and the inhibition at 100 µM was found to be 41.9%.

As to `Cc1nc2c(ccc3ccccc32)c(O)c1CN1CCCC1` [Compound 3453-1335], the remaining activity at 100 µM turned out to be 66.9% and the inhibition at 100 µM is 33.1%.

Take `COc1ccc(NC(=S)N(CCCN2CCOCC2)Cc2cccs2)cc1` [Compound C087-0783]: the remaining activity at 100 µM was 102% and the inhibition at 100 µM was 0%.

Regarding `COC(=O)c1sc(=S)n(-c2ccc(Cl)c(Cl)c2)c1N` [Compound K286-4369], the remaining activity at 100 µM was 84.5% and the inhibition at 100 µM was determined as 15.6%.

`CCCCC1NC(C(=O)O)CS1` (centres unmarked) [Compound K085-0025]: the remaining activity at 100 µM was found to be 128% and the inhibition at 100 µM was 0%.

Broadly, the pIC50 is the IC50 on a negative log10 scale, so that one unit is a factor of ten. On to `COc1cc(CO)ccc1Oc1ccc([N+](=O)[O-])cc1[N+](=O)[O-]` [Compound 19], for which the remaining activity at 50 µM worked out at 28% and the pIC50 was 4.70.

As for `CCCCN(CC)Cc1c(C)nc2ccc(Cl)cc2c1O` [Compound 4358-1230], the remaining activity at 100 µM is 79.7% and the inhibition at 100 µM turned out to be 20.3%.

On to `O=c1/c(=C\c2ccccc2Cl)sc2nc3ccccc3n12` [Compound 3062-0592], for which the remaining activity at 100 µM was found to be 71% and the inhibition at 100 µM came to 29.1%.

Turning to `CC(C)C(=O)NC(c1ccccc1)c1ccc2cccnc2c1O` (centres unmarked) [Compound K839-0067], the remaining activity at 100 µM was 4.6% and the inhibition at 100 µM amounted to 95.4%.

On to `O=C1OC(c2ccc(Cl)cc2Cl)=N/C1=C\c1cccs1` [Compound K075-5819], for which the remaining activity at 100 µM came out at 136% and the inhibition at 100 µM came to 0%.

In the case of `O=C1/C(=C\c2cccc(O)c2)SC(=S)N1c1ccc(F)cc1` [Compound 3232-1704], the remaining activity at 100 µM was determined as 309% and the inhibition at 100 µM was found to be 0%.

Regarding `CCN1C(=O)/C(=C/c2ccc(N(CC)CC)cc2O)SC1=S` [Compound 1996-0170], the remaining activity at 100 µM came out at 177% and the inhibition at 100 µM amounted to 0%.

In the case of `Cc1ccccc1C1=N/C(=C\c2sccc2C)C(=O)O1` [Compound 1989-9396], the remaining activity at 100 µM was 115% and the inhibition at 100 µM stood at 0%.

For the compound `O=C(NCc1ccco1)c1cc(Sc2cccc(Cl)c2)nc2ccccc12` [Compound K784-7215], the remaining activity at 100 µM was 60.7% and the inhibition at 100 µM is 39.3%.

`O=C(Nc1nnc[nH]1)c1c(Cl)ccc(Cl)c1Cl` [Compound 3232-0353]: the remaining activity at 100 µM was 11.5% and the inhibition at 100 µM amounted to 88.5%.

Turning to `O=C(Nc1c2c(nn1-c1cccc(Cl)c1)C[S+]([O-])C2)c1ccccc1F` (centres unmarked) [Compound C077-0215], the remaining activity at 100 µM was 89.5% and the inhibition at 100 µM is 10.4%.

`COc1cc(/C=C2\SC(=S)N(c3ccc(O)cc3)C2=O)ccc1O` [Compound 2189-0711]: the remaining activity at 100 µM is 230% and the inhibition at 100 µM came to 0%.

Regarding `CCC(=O)NC(c1ccc2c(c1)OCO2)c1cc(Cl)c2cccnc2c1O` (centres unmarked) [Compound K839-0017], the remaining activity at 100 µM was 41.9% and the inhibition at 100 µM is 58.1%.

For `COc1cc(C2NC(C(=O)O)CS2)ccc1O` (centres unmarked) [Compound K085-0027], the remaining activity at 100 µM amounted to 116% and the inhibition at 100 µM amounted to 0%.

As for `Cc1ccccc1Nc1c(-c2ccc(Cl)s2)nc2ccc(Cl)cn12` [Compound C273-0244], the remaining activity at 100 µM was determined as 306% and the inhibition at 100 µM was determined as 0%.

With `CCc1ccc(Oc2cc(F)nc(N)n2)cc1` [Compound 1544-0079], the remaining activity at 100 µM amounted to 10.4% and the inhibition at 100 µM was 9.71%.

As to `O=C(NC1CC1)c1cc(Sc2cccc(Cl)c2)nc2ccccc12` [Compound K784-7224], the remaining activity at 100 µM was 41.8% and the inhibition at 100 µM came out at 58.2%.

Regarding `Cc1ccc2nc(NC(=O)c3ccccc3O)sc2c1` [Compound 1300-0073], the remaining activity at 100 µM turned out to be 368% and the inhibition at 100 µM stood at 0%.

As for `CSC1=NSC2=NC(=O)/C(=C\c3ccc(Cl)cc3)C(=N)N12` [Compound C146-0181], the remaining activity at 100 µM was determined as 67.1% and the inhibition at 100 µM is 32.9%.

`O=Cc1ccc(Oc2ccccc2)c(O)c1` [Compound 2]: the remaining activity at 50 µM amounted to 112%.

For the compound `O=C(O)C1CSC(c2c(F)cccc2Cl)N1` (centres unmarked) [Compound K085-0006], the remaining activity at 100 µM came to 20.3% and the inhibition at 100 µM came to 79.7%.

With `CCOc1cccc2c1OC(c1cccc(Cl)c1)N1N=C(c3cccs3)CC21` (centres unmarked) [Compound K805-0132], the inhibition at 100 µM came to 0%.

Regarding `COc1cc(C(=O)O)ccc1Oc1ccc([N+](=O)[O-])cc1[N+](=O)[O-]` [Compound 21], the remaining activity at 50 µM came out at 48% and the pIC50 is 4.70.

Consider `Cc1nc2c(C(=O)NCc3ccc(F)cc3)cnn2c(O)c1Cc1ccccc1F` [Compound C218-0299], for which the remaining activity at 100 µM came out at 46.9% and the inhibition at 100 µM is 53.1%.

For the compound `COc1cc(CO)ccc1Oc1ccccc1` [Compound 3], the remaining activity at 50 µM was found to be 61.2%.

Turning to `Cc1ccc(/C=c2/sc3nc4ccccc4n3c2=O)cc1` [Compound 3062-0586], the remaining activity at 100 µM worked out at 125% and the inhibition at 100 µM was 0%.

In the case of `COc1cccc(C(=O)NC(c2ccccc2)c2cc(Cl)c3cccnc3c2O)c1` (centres unmarked) [Compound K839-0116], the remaining activity at 100 µM worked out at 34.7% and the inhibition at 100 µM stood at 65.3%.

On to `O=C(O)c1cccc(-c2ccc(/C=C3\SC(=S)N(c4cccc(C(F)(F)F)c4)C3=O)o2)c1` [Compound 2027-0438], for which the remaining activity at 100 µM amounted to 449% and the inhibition at 100 µM came to 0%.

Turning to `O=[N+]([O-])c1ccc(Cl)cc1Sc1nc2ccccc2s1` [Compound 2369-0691], the remaining activity at 100 µM turned out to be 8.2% and the inhibition at 100 µM worked out at 91.8%.

Regarding `Cc1ccn2c(Nc3ccc(F)cc3)c(-c3ccccn3)nc2c1` [Compound C273-0218], the remaining activity at 100 µM is 162% and the inhibition at 100 µM amounted to 0%.

On to `O=C1OC(/C=C/c2ccc(Cl)cc2Cl)=NC/1=C\c1cccs1` [Compound K088-1892], for which the remaining activity at 100 µM was 294% and the inhibition at 100 µM stood at 0%.

The values above are taken from patent US20100190832A1, “Mechanism-based inhibitors of transthyretin amyloidosis: studies with biphenyl ethers and structural templates” (NATIONAL INSTITUTE OF IMMUNOLOGY., priority 2008, published 2010).
